# Data as given in patent US20160296590A1, “METHOD OF TREATING OR PREVENTING EPILEPSY OR SEIZURES USING ONE OR MORE NEURAL REGENERATION PEPTIDES” (CURONZ HOLDINGS COMPANY LIMITED, priority 2013, published 2016).
# “Also recorded” adds a separate entry of the source. Where no end group is shown, it is not given here. [ ]: non-standard residue; d: D form. Aib = CC(C)(N)C(=O)O
# What was measured:
# Format in all cases: in vivo, rat
# GABAA receptor α subunit = test: Immunohistochemistry of GABAA receptor α subunit expression after PTZ injection; conditions: 20 μg/kg; somatosensory cortex and hippocampal CA1 area; P<0.001
# Procedure: (§1) Adult male wistar rats (200-250g) were housed under controlled conditions (ambient temperature=22° C., humidity=40%; 12-h light/dark cycle) with food and water ad libitum. Animals were age- and weight-matched and randomly received by intra peritoneal injection NRP2945 in saline (5, 10 or 20 μg/kg) or saline alone (control) thirty minutes before the i.p. injection of pentylenetetrazol (PTZ; 50 mg/kg dissolved in 0.9% saline). All experiments were carried out according to the protocol approved by the Animal Ethics Committee of Shefa Neuroscience Center, Tehran, Iran.
# (§2) Animals were deeply anaesthetized with chloral hydrate and perfused transcardially with 200 ml of saline followed by 600 ml of 4% PFA solution. The brains were extracted and kept in 4% PFA for at least 4 days at 4° C. and were then processed for immunohistochemistry studies. The serial (8 μm) coronal sections were prepared. Three paraffin embedded sections in 1.8 to 3.3 mm posterior to the bregma from each animal were cleared and rehydrated through a series of xylol and alcohol and washed with phosphate buffered saline (PBS) three times and incubated in blockage solution (3% H2O2/methanol for 5 min). After washing in PBS, slides were boiled in sodium citrate buffer at 95° C, for 10 min. […]
# GAD-65 = test: Immunohistochemistry of GAD-65 expression after PTZ injection; conditions: 20 μg/kg; somatosensory cortex, CA1 and CA3 hippocampal areas; P<0.001
# Procedure: as §1, §2
# normal neurons = test: Volume-weighted mean volume of normal neurons (stereology) after PTZ-induced seizures; set-up: Mean volume of normal neurons CA1 / Mean volume of normal neurons CA3 / Mean volume of normal neurons Cortex: unit not given here; conditions: for Mean volume of normal neurons CA1: hippocampal CA1; for Mean volume of normal neurons CA1 / Mean volume of normal neurons CA3 / Mean volume of normal neurons Cortex: rats; for Mean volume of normal neurons CA3: hippocampal CA3; for Mean volume of normal neurons Cortex: somatosensory cortex
# Procedure: as §1
# The volume-weighted mean volume of normal neurons was calculated directly by point-sampled intercept on 10 uniform systematically and randomly sampled microscopic fields of the pyramidal layers of hippocampal areas CA1 and CA3as well as the somatosensory cortex. A lattice of test points on lines was superimposed randomly onto the traced nuclear profiles in each particular field. Nuclei of neurons were marked and two isotropic lines from randomly selected directions were centred on this neuron and superimposed. The intersection of each line with the outer surface of the respective neuron's soma was marked. These lines produced point-sampled intercepts, the lengths of which were measured and cubed. The mean was multiplied by […], and finally all intercepts were averaged to give an estimate of the volume-weighted mean neuronal volume. For quantitative analysis of dark neurons, the physical dissector method was used. Ten pairs of sections, with […] distance, were collected from each brain. The first section of each pair was designated as the reference and the second one was used for comparison. On each pair of sections, at least 10 microscopic fields were selected by uniform systematic-random sampling in every area of interest. Using the unbiased frame and physical dissector counting rule, the counting of dark neurons in each field was carried out (Jafarian et al., 2010).
# Animals were deeply anaesthetised with chloral hydrate (3.5%; Sigma-Aldrich) and perfused transcardially with 200 ml of saline followed by 200 ml of a solution containing 1% paraformaldehyde (PFA). After perfusion, all rats were decapitated and the brains were removed. The brains were kept in 1% PFA for at least 10 days and were then processed for histological studies as follows. The brain was cut into transverse sections of 8 µm thickness. Sections were stained with toluidine blue. The sections were selected by uniform systematic random sampling in every area of interest. Different areas (hippocampal CA1 and CA3 areas and somatosensory neocortex) were studied under a light microscope (BX51, Olympus, Japan) equipped with a digital camera. Digital photographs were taken using a 40x oil immersion objective lens (Olympus, Japan). The magnification was calculated using an objective micrometer.
# GABAA receptor β subunit = test: Immunohistochemistry of GABAA receptor β subunit expression after PTZ injection; conditions: 20 μg/kg; only CA1 hippocampal region; P<0.001
# Procedure: as §1, §2
# [1] = tested on: PTZ-induced epileptiform burst discharges; test: Electrocorticogram (ECoG) recording of PTZ-induced epileptiform burst discharges
# Procedure: Adult male wistar rats (200-250g) were housed under controlled conditions (ambient temperature=22° C., humidity=40%; 12-h light/dark cycle) with food and water ad libitum. Animals were age- and weight-matched and randomly received by intra peritoneal injection NRP2945 in saline (5, 10 or 20 μg/kg) or saline alone (control) thirty minutes before the i.p. injection of pentylenetetrazol (PTZ; 50 mg/kg dissolved in 0.9% saline). All experiments were carried out according to the protocol approved by the Animal Ethics Committee of Shefa Neuroscience Center, Tehran, Iran. Animals were anaesthetized with chloral hydrate 3.5% (dissolved in normal 0.9% saline; Sigma-Aldrich) and the head of each rat was placed in a stereotaxical instrument (Stoelting Instruments, USA). Epidural recording electrodes were stereotaxically implanted above the left and right somatosensory cortices (3.0 mm posteriorly to Bregma and 3.0 mm laterally from the midline) under continuous chloral hydrate anesthesia. The reference electrode is located at the nasal bone. ECoG was recorded via monopolar silver electrodes connected to an amplifier (EXT-02 F, NPI, Germany; with band-pass filters at […], sampling rate 10 kHz) and stored by a digital oscilloscope. ECoG recordings were performed for 30 minutes after receiving saline or NRP2945 (5, 10, 20 μg/kg) and 30 minutes after the injection of PTZ. Latency, duration, amplitude, and frequency of epileptic spikes activity were calculated using AxoScope 10 software (Axon Instruments, CA, USA).
# PTZ-induced seizures = test: Behavioural test of PTZ-induced seizure attacks; conditions: for Behavioural test Severity: seizure score 0-6
# Procedure: Adult male wistar rats (200-250g) were housed under controlled conditions (ambient temperature=22° C., humidity=40%; 12-h light/dark cycle) with food and water ad libitum. Animals were age- and weight-matched and randomly received by intra peritoneal injection NRP2945 in saline (5, 10 or 20 μg/kg) or saline alone (control) thirty minutes before the i.p. injection of pentylenetetrazol (PTZ; 50 mg/kg dissolved in 0.9% saline). All experiments were carried out according to the protocol approved by the Animal Ethics Committee of Shefa Neuroscience Center, Tehran, Iran. After each PTZ-injection, the convulsive behaviour of each rat was assessed for 30 min, and resultant seizures were scored as follows: 0=normal behaviour; 1=immobility; 2=rigid posture; 3=repetitive scratching, circling, or head bobbing; 4=forelimb clonus, rearing, and falling; 5=repeated occurrence of level four behaviour, 6=severe tonic-clonic behaviour or status epilepticus (Karimzadeh et al., 2013). Latency of seizure onset was defined as the average length of time in seconds between PTZ administration an initially detectable and seizure. A generalized seizure was characterised by symmetric forelimb and hind limb tonus, followed by hind limb clonus and subsequent jumping activity. Because some animals occasionally had more than one seizure, the seizure duration was assessed as the sum of durations of these multiple seizures.
# dark neurons = test: Dark neuron count (toluidine blue, physical dissector) after PTZ-induced seizures; conditions: hippocampal CA1 and CA3 areas and somatosensory cortex, 5, 10 and 20 μg/kg
# Procedure: as §1
# The volume-weighted mean volume of normal neurons was calculated directly by point-sampled intercept on 10 uniform systematically and randomly sampled microscopic fields of the pyramidal layers of hippocampal areas CA1 and CA3as well as the somatosensory cortex. A lattice of test points on lines was superimposed randomly onto the traced nuclear profiles in each particular field. […] These lines produced point-sampled intercepts, the lengths of which were measured and cubed. […] For quantitative analysis of dark neurons, the physical dissector method was used. […]
# Animals were deeply anaesthetised with chloral hydrate (3.5%; Sigma-Aldrich) and perfused transcardially with 200 ml of saline followed by 200 ml of a solution containing 1% paraformaldehyde (PFA). […] The magnification was calculated using an objective micrometer.
# [2] = 5 μg/kg i.p. 30 min before PTZ, anaesthetized rats
# [3] = 10 μg/kg i.p. 30 min before PTZ, anaesthetized rats
# [4] = 5 μg/kg i.p. 30 min before PTZ, rats
# [5] = 10 μg/kg i.p. 30 min before PTZ, rats
substance,measurement,setting,value
"GlyArgArgAlaAlaProGlyArgAibGlyGly (GRRAAPGR[Aib]GG) [NRP2945, 11-residue neural regeneration peptide, derived from amino acid position 40-50 of human CAPS2]",expression of GABAA receptor α subunit compared to control,GABAA receptor α subunit,higher expression; also recorded: significant enhancement
same,expression of GAD-65 immunoreactive neurons compared to control,GAD-65,significantly higher; also recorded: significant increase
same,mean volume of normal neurons after PTZ-induced seizures compared to control,normal neurons; 5 μg/kg,did not affect
same,mean volume-weighted volume of normal neurons compared to control,"normal neurons; 10 and 20 μg/kg, CA1, CA3 and somatosensory cortex, P≦0.001",higher; also recorded: larger
same,Mean volume of normal neurons CA1,normal neurons; 5 μg/kg i.p. before PTZ,380.9 ± 7.1
same,Mean volume of normal neurons CA1,normal neurons; 10 μg/kg i.p. before PTZ,413.1 ± 4.4
same,Mean volume of normal neurons CA1,normal neurons; 20 μg/kg i.p. before PTZ,451.9 ± 5.5
same,Mean volume of normal neurons CA3,normal neurons; 5 μg/kg i.p. before PTZ,387.9 ± 3.2
same,Mean volume of normal neurons CA3,normal neurons; 10 μg/kg i.p. before PTZ,438.6 ± 5.6
same,Mean volume of normal neurons CA3,normal neurons; 20 μg/kg i.p. before PTZ,474.1 ± 5.1
same,Mean volume of normal neurons Cortex,normal neurons; 5 μg/kg i.p. before PTZ,340.8 ± 3.1
same,Mean volume of normal neurons Cortex,normal neurons; 10 μg/kg i.p. before PTZ,395.7 ± 6.1
same,Mean volume of normal neurons Cortex,normal neurons; 20 μg/kg i.p. before PTZ,387.9 ± 7.5
same,expression of GABAA receptor β subunit compared to control,GABAA receptor β subunit,higher; also recorded: enhanced
same,ECoG Amplitude,[1]; [2],1.1 ± 0.04 mV
same,ECoG Duration,[1]; [2],60 ± 1.2 s
same,ECoG Frequency,[1]; [2],4.7 ± 0.3 per min
same,ECoG Latency,[1]; [2],326 ± 24 s
same,ECoG Amplitude,[1]; [3],0.84 ± 0.1 mV
same,ECoG Duration,[1]; [3],60 ± 2.1 s
same,ECoG Frequency,[1]; [3],6.67 ± 0.9 per min
same,ECoG Latency,[1]; [3],417 ± 37 s
same,development of epileptiform field potentials,"[1]; 20 μg/kg i.p. 30 min before PTZ, anaesthetized rats",completely prevented
same,amplitude of epileptiform field potentials compared to control,"[1]; 5 and 10 μg/kg i.p., P≦0.001",significantly smaller; also recorded: decreased
same,duration of epileptiform field potentials compared to control,"[1]; 5 and 10 μg/kg i.p., P≦0.001",significantly shorter; also recorded: decreased
same,latency time to onset of first spike waves compared to control,"[1]; 5 and 10 μg/kg i.p., P≦0.001",increased
same,repetition rate (frequency) of epileptiform field potentials compared to control,"[1]; 5 and 10 μg/kg i.p., P≦0.001",significantly lower; also recorded: decreased
same,Behavioural test Latency,"PTZ-induced seizures; 5 μg/kg i.p. 30 min before PTZ 50 mg/kg i.p., rats",230.2 ± 10.6 s
same,Behavioural test Duration,PTZ-induced seizures; [4],35.83 ± 5.9 s
same,Behavioural test Severity,PTZ-induced seizures; [4],3.67 ± 0.21
same,Behavioural test Latency,"PTZ-induced seizures; 10 μg/kg i.p. 30 min before PTZ 50 mg/kg i.p., rats",150.2 ± 7.4 s
same,Behavioural test Duration,PTZ-induced seizures; [5],37.67 ± 7.3 s
same,Behavioural test Severity,PTZ-induced seizures; [5],3.67 ± 0.21
same,PTZ-induced seizures or convulsions,"PTZ-induced seizures; 20 μg/kg i.p. 30 min before PTZ, rats",completely prevented
same,latency of seizure attacks compared to control,PTZ-induced seizures; 5 and 10 μg/kg i.p.,not affecting
same,severity of seizure attacks compared to control,PTZ-induced seizures; 5 and 10 μg/kg i.p.,not affecting
same,total duration of seizure attacks compared to control,"PTZ-induced seizures; 5 and 10 μg/kg i.p., p<0.05, n=12",reduced
same,Density (production) of dark neurons in comparison to saline,dark neurons,significantly decreased
same,Density (production) of dark neurons in comparison to saline,dark neurons; listed as NRP 2945,inhibited
